In brackets after ≈: the same amount, converted by molar mass.
What was measured:
E. coli CA-4 = assay: MIC assessment (TREK Sensititre); type: cell-based, Escherichia coli; details: Escherichia coli, CA4; E. coli CA-4; read-out: MIC
Description: (§1) Bacterial strains. Multiple Amp^r strains from feces of broiler chickens without antibiotic treatment were recovered on Columbia blood Agar base (Becton, […] Dickinson and Company, Franklin Lakes, NJ) supplemented with 5% defibrinated sheep blood (Thermo Scientific™, Grand Island, NY). The strains were maintained in Columbia broth (Becton Dickinson and Company, Franklin Lakes, NJ), and propagated by aerobic growth at 37° C., and further subjected to strain identification and Minimum Inhibition Concentration (MIC) assessments.
(§2) Minimum inhibition concertation (MIC) assessment. A TREK Sensititre diagnostic system (Thermo scientific, Oakwood Village, OH, USA) was used to assess the AR phenotype and MIC of isolated strains. Protocols to use this system can be found on www.trekds.com. Cation-adjusted Mueller Hinton Broth (Becton, Dickinson and Company, MD, USA) was used as basic medium.

E. coli CA-20 = assay: MIC assessment (TREK Sensititre); type: cell-based, Escherichia coli; details: Escherichia coli, CA20; E. coli CA-20; read-out: MIC
Description: as §1, §2

E. coli CA-1 = assay: MIC assessment (TREK Sensititre); type: cell-based, Escherichia coli; details: Escherichia coli, CA1; E. coli CA-1; read-out: MIC
Text: Bacterial strains. Multiple Amp^r strains from feces of broiler chickens without antibiotic treatment were recovered on Columbia blood Agar base (Becton, […] Dickinson and Company, Franklin Lakes, NJ) supplemented with 5% defibrinated sheep blood (Thermo Scientific™, Grand Island, NY).
as §2

[1] = tested on: Lactobacillus crispatus CG-12; assay: MIC assessment (TREK Sensititre); type: cell-based; details: Lactobacillus crispatus, CG12; L. crispatus CG-12; read-out: MIC
Description: Multiple commensal bacterial strains from chicken feces were recovered from Columbia blood Agar base (Becton, […] Dickinson and Company, Franklin Lakes, NJ) supplemented with 5% defibrinated sheep blood (Thermo Scientific™, Grand Island, NY), and maintained in Columbia broth (Becton Dickinson and Company, Franklin Lakes, NJ) and propagated by anaerobic growth at 37° C. The strains were subjected to antibiotic susceptibility assessment followed by strain identification.
as §2

poultry gut microbiota = assay: Impact of ampicillin administration routes on poultry gut microbiota (FIG. 7); type: in vivo, chickens; details: Day 25
Text: (A) NI-Saline-PO; (B) NI-Amp-IM; (C) NI-Amp-PO; (D) Amp-IM; (E) Amp-PO.
The impact of ampicillin administration routes and inoculation of Amp^r E. coli on poultry gut microbiota. FIG. 7A-B illustrates the impact of ampicillin application on gut microbiota of chickens. The data illustrated that without antibiotic application (FIG. 7A), Lactobacillus dominant, E. coli/Shegilla insignificant. […] The results clearly illustrated the major impact on oral ampicillin administration on poultry gut microbiota by diminishing Lactobacillus, increasing Clostridium, and massively increase […] due to Amp^r E. coli in inoculated chickens and Klebsiella in non-inoculated chickens.

CC1(C)S[C@@H]2[C@H](NC(=O)[C@H](N)c3ccccc3)C(=O)N2[C@H]1C(=O)O [AMP, ampicillin]
MIC (E. coli CA-4): > 16 µg/mL
MIC (E. coli CA-20): > 16 µg/mL
MIC (E. coli CA-1): > 16 µg/mL
MIC [1]: 0.5 µg/mL (≈ 1.43 µM)
change of gut microbiota (poultry gut microbiota; muscle injection, inoculated with E. coli cocktail (FIG. 7D)): Firmicutes still dominant but with which Lactobacillus drastically reduced
change of gut microbiota (poultry gut microbiota; muscle injection, without inoculation of E. coli cocktail (FIG. 7B)): minimal changes
change of gut microbiota (poultry gut microbiota; oral feeding, inoculated with E. coli cocktail (FIG. 7E)): Firmicutes changed from dominant to minority
change of gut microbiota (poultry gut microbiota; oral, without inoculation of E. coli cocktail (FIG. 7C)): decrease of Firmicutes (still dominant) and significant increase of Proteobacteria
